Reference: ChEMBL document CHEMBL3352627, “Brocazines A-F, Cytotoxic Bisthiodiketopiperazine Derivatives from Penicillium brocae MA-231, an Endophytic Fungus Derived from the Marine Mangrove Plant Avicennia marina” (J Nat Prod, 2014)

Assays:
Type in all cases: functional, cell-based
SW1990 = test: Cytotoxicity against human SW1990 cells assessed as reduction in cell viability
MCF7 = test: Cytotoxicity against human MCF7 cells assessed as reduction in cell viability
HeLa = test: Cytotoxicity against human HeLa cells assessed as reduction in cell viability
DU-145 = test: Cytotoxicity against human DU145 cells assessed as reduction in cell viability
NCI-H460 = test: cells; conditions: Homo sapiens
Description: Cytotoxicity against human NCI-H460 cells assessed as reduction in cell viability

[1] = Cytotoxicity against human SGC7901 cells assessed as reduction in cell viability; conditions: SGC-7901
U-251 = test: Cytotoxicity against human U251 cells assessed as reduction in cell viability
HepG2 = test: Cytotoxicity against human HepG2 cells assessed as reduction in cell viability
SW480 = test: Cytotoxicity against human SW480 cells assessed as reduction in cell viability

IC50 (NCI-H460)	Compound	IC50 (SW1990)	IC50 (MCF7)	IC50 (HeLa)	IC50 (DU-145)	IC50 [1]	IC50 (U-251)	IC50 (HepG2)	IC50 (SW480)
–	Nc1ccn([C@@H]2O[C@H](CO)[C@@H](O)C2(F)F)c(=O)n1 [GEMCITABINE]	2.2 µM	–	–	–	–	–	–	–
–	CC(=O)O[C@H]1C(=O)[C@@]2(C)[C@H]([C@H](OC(=O)c3ccccc3)[C@]3(O)C[C@H](OC(=O)[C@H](O)[C@@H](NC(=O)c4ccccc4)c4ccccc4)C(C)=C1C3(C)C)[C@]1(OC(C)=O)CO[C@@H]1C[C@@H]2O [PACLITAXEL]	–	1.8 µM	5 µM	1.5 µM	–	–	–	–
> 20 µM	CO[C@H]1CC(=O)[C@@H]2C[C@@]34SS[C@]5(C[C@H]6C(=O)C[C@H](O)[C@H](O)[C@H]6N5C3=O)C(=O)N4[C@@H]2[C@H]1O	> 20 µM	> 20 µM	> 20 µM	> 20 µM	> 20 µM	> 20 µM	> 20 µM	> 20 µM
> 20 µM	O=C1C[C@H](O)[C@H](O)[C@@H]2[C@H]1C[C@@]13SS[C@]4(C[C@H]5[C@@H]([C@@H](O)C=C[C@@H]5O)N4C1=O)C(=O)N23	> 20 µM	> 20 µM	> 20 µM	> 20 µM	> 20 µM	> 20 µM	> 20 µM	> 20 µM
12.4 µM	O=C1N2[C@H]3[C@H](C[C@]24SS[C@]12C[C@H]1[C@@H]([C@@H](O)C=C[C@@H]1O)N2C4=O)[C@@H](O)C=C[C@@H]3O	2.1 µM	9 µM	4.3 µM	11.2 µM	3.3 µM	6.1 µM	5.6 µM	–
4 µM	O=C1C=C[C@H](O)[C@@H]2[C@@H]1C[C@@]13SS[C@]4(C[C@H]5C(=O)CC[C@H](O)[C@H]5N4C1=O)C(=O)N23	6.4 µM	6.1 µM	5.3 µM	3.6 µM	2.4 µM	3.5 µM	5.5 µM	1.2 µM
–	COc1cccc2c1C(=O)c1c(O)c3c(c(O)c1C2=O)C[C@@](O)(C(=O)CO)C[C@@H]3O[C@H]1C[C@H](N)[C@H](O)[C@H](C)O1 [DOXORUBICIN]	–	–	–	–	2.9 µM	–	–	–
4.9 µM	CO[C@H]1CC(=O)[C@@H]2C[C@@]34SS[C@]5(C[C@@H]6C(=O)C=C[C@H](O)[C@H]6N5C3=O)C(=O)N4[C@@H]2[C@H]1O	6 µM	5.5 µM	6.8 µM	4.2 µM	2.6 µM	5.2 µM	6.4 µM	2 µM
0.89 µM	O=C1C=C[C@H](O)[C@@H]2[C@@H]1C[C@@]13SS[C@]4(C[C@H]5[C@@H]([C@@H](O)C=C[C@@H]5O)N4C1=O)C(=O)N23	5.9 µM	3 µM	6.9 µM	1.7 µM	8 µM	5.3 µM	2.9 µM	–
